Values quoted from earlier work, collected in patent US9238083B2, “Molecular probe for imaging of pancreatic islets and use of the same” (Kyoto University, priority 2009, dated 2016).

Legend:
pancreatic islet cells = details: cited from earlier work
[1] = system: GLP-1R-positive tumor cells; details: cited from earlier work

For Lys^40(Ahx-DTPA-^111In)Exendin-4(9-39), the “uptake in pancreatic islets” value (pancreatic islet cells) is listed as “about 0.4%”, the “affinity with respect to GLP-1R” value (pancreatic islet cells; conclusion from the uptake results) is listed as “low affinity” and the “uptake in the GLP-1R-positive tumor cells” value [1] is listed as “about 7.5%”.
